Broadly, the IC50 is the point on the concentration scale where inhibition reaches its midpoint.

Data set [1] concerns EH: Enterococcus hirae ATCC 10541. Kind of data set: Antimicrobial activity by the agar dilution method (MIC). The data set is classed as cell-based. The note with it: pH 7.
Protocol: (§1) Antimicrobial activity was determined by the agar dilution method using a culture medium (pH 7) prepared by dissolving 3 g of Bacto-Tryptone (manufactured by Difco, Co.), 3 g of meat extract, 1 g of yeast extract, 1 g of glucose, and 16 g of agar in 1 l of water.
Data set [2] has as its system SA: Staphylococcus aureus ATCC 6538P. The description is as above. As to conditions: ATCC6538P. The data set is classed as cell-based.
Protocol: as §1
Data set [3] has as its system BS: Bacillus substilis No. 10707. Described as above. The data set is classed as cell-based.
Protocol: as §1
The test system of data set [4] is KP: Klebisiella pneumoniae ATCC 10031. Described as above. The data set is classed as cell-based.
Protocol: as §1
Data set [5] concerns EC: Escherichia coli ATCC 26. Described as above. The data set is classed as cell-based.
Protocol: as §1
The subject of data set [6] is Sarcoma 180 mouse solid tumor. Kind of data set: Antitumor activity against Sarcoma 180 mouse solid tumor. As to conditions: Sarcoma-180, iv, 168 h. The format is in vivo, mouse (ddY). The method, boiled down: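 Male ddY mice (20±1 g) implanted subcutaneously in the right axilla with 5×10^7 cells/mL sarcoma 180 suspension (0.01 mL) from ascites passage. Test compound in saline with polyoxyethylene sorbitan monolaurate given intravenously via tail vein, 0.2 mL, 24 h after transplant; five mice per group.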

The test system of the next data set is various bacteria. The note with it: Japanese Published Unexamined Patent Application No. 112988/89; cited from earlier work.
For another data set, the system named is tumor. As to conditions: Japanese Published Unexamined Patent Application No. 112988/89; cited from earlier work.
A further data set has as its system HeLa S3 cells. Kind of data set: HeLa S3 Cell Growth Inhibition Test. The data set is classed as cell-based. As to conditions: Homo sapiens, HeLa S3, 72 h, HeLa S3; 72 hours incubation; Neutral Red; read-out: IC50, HeLa S3 cell growth inhibition. The method in brief:
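HeLa S3 cells seeded overnight in MEM with 10% FBS, then exposed to compound for 72 h at 37 °C. Viable cells stained with Neutral Red, dye extracted, absorbance read at 550 nm; IC50 derived against untreated cells.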

Where [7] appears, read: Staphylococcus aureus ATCC 6538P, agar dilution, pH 7, read-out: minimum inhibitory concentration (MIC), SA.
Setting [8] is: Bacillus substilis No. 10707, agar dilution, pH 7, read-out: minimum inhibitory concentration (MIC), BS.
Where [9] appears, read: Klebisiella pneumoniae ATCC 10031, agar dilution, pH 7, read-out: minimum inhibitory concentration (MIC), KP.
Setting [10] is: ATCC26, Escherichia coli ATCC 26, agar dilution, pH 7, read-out: minimum inhibitory concentration (MIC), EC.

In brackets after ≈: the same amount, converted by molar mass. Read-outs that look alike come from different tables or passages of the source.

For the compound `COC(=O)[C@H](CCC(=O)OCSC(=O)C(C)(O)C12CC/C(C)=C/C(O)C(=O)/C=C/C=C\c3csc(n3)C(C)N(C(=O)C1)[S+]2[O-])NC(=O)C1CCC(=O)N1` (some centres unmarked) [Compound 143], the “minimum inhibitory concentration (MIC), EH” value in [1] is 0.29 µg/mL (≈ 0.365 µM). In addition, the MIC in [2] (Staphylococcus aureus, pH 7, read-out: minimum inhibitory concentration (MIC), SA) came to 0.29 µg/mL (≈ 0.365 µM); in data set [3] (Bacillus, pH 7, read-out: minimum inhibitory concentration (MIC), BS), 0.29 µg/mL (≈ 0.365 µM); in [4] (pH 7, read-out: minimum inhibitory concentration (MIC), KP), 0.59 µg/mL (≈ 0.742 µM); in data set [5] (Escherichia coli, ATCC26, pH 7, read-out: minimum inhibitory concentration (MIC), EC), 19 µg/mL (≈ 23.9 µM). Moreover, in data set [6] (read-out: T/C (tumor volume ratio treated/control)), the response vs control in vivo at 8 mg/kg came to 27%.
As for `CC1=CC(O)C(=O)C=CC=Cc2csc(n2)C(C)NC(=O)CC2(CC1)[S+]([O-])SC(=O)C2(C)O` (centres unmarked) [DC107], in the data set on various bacteria, the antimicrobial activity entry is on record as “antimicrobial activity against various bacteria”. Besides, the antitumor activity entry with tumor is reported as “antitumor activity”.
Take `COCCOCC(=O)OCc1oc(=O)oc1CSC(=O)C(C)(O)C12CC/C(C)=C/C(OC3CCCCO3)C(=O)/C=C/C=C\c3csc(n3)C(C)N(C(=O)C1)[S+]2[O-]` (centres unmarked) [Compound 100]: the “minimum inhibitory concentration (MIC), EH” value in data set [1] is 0.33 µg/mL (≈ 0.393 µM). Moreover, the MIC in data set [2] (setting [7]) turned out to be 0.081 µg/mL (≈ 0.0965 µM); in data set [3] (setting [8]), 0.041 µg/mL (≈ 0.0489 µM); in [4] (setting [9]), 0.65 µg/mL (≈ 0.775 µM); in [5] (setting [10]) it was 2.6 µg/mL (≈ 3.1 µM). Also, the 50% inhibitory concentration (IC50) with HeLa S3 cells came to 18 nM. The response vs control in vivo at 16 mg/kg in data set [6] (16 mg/kg i.v. once, 24 hours after transplant, tumor volume on day 7, read-out: T/C (tumor volume ratio treated/control)) is 30%.
`COCOCc1oc(=O)oc1CSC(=O)C(C)(O)C12CC/C(C)=C/C(O)C(=O)/C=C/C=C\c3csc(n3)C(C)N(C(=O)C1)[S+]2[O-]` (centres unmarked) [Compound 77]: in [1], the “minimum inhibitory concentration (MIC), EH” value worked out at 0.18 µg/mL (≈ 0.264 µM). For the same compound, the MIC in data set [2] (setting [7]) is 0.36 µg/mL (≈ 0.527 µM); in [3] (setting [8]), 0.36 µg/mL (≈ 0.527 µM); in [4] (setting [9]) it was 0.36 µg/mL (≈ 0.527 µM); in data set [5] (setting [10]), 11 µg/mL (≈ 16.1 µM). In addition, the IC50 in the data set on HeLa S3 cells was 7.7 nM. In addition, in data set [6] (8.0 mg/kg i.v. once, 24 hours after transplant, tumor volume on day 7, read-out: T/C (tumor volume ratio treated/control)), the response vs control in vivo at 8 mg/kg stood at 36%.
As to `COCCOCCOCC(=O)OCSC(=O)C(C)(O)C12CCC(C)=CC(O)C(=O)C=CC=Cc3csc(n3)C(C)N(C(=O)C1)[S+]2[O-]` (centres unmarked) [Compound 35], the “minimum inhibitory concentration (MIC), EH” value in [1] worked out at 0.39 µg/mL (≈ 0.556 µM). Moreover, the MIC in data set [2] (setting [7]) was determined as 0.39 µg/mL (≈ 0.556 µM); in data set [3] (setting [8]), 0.39 µg/mL (≈ 0.556 µM); in data set [4] (setting [9]) it was 0.39 µg/mL (≈ 0.556 µM); in data set [5] (setting [10]) it was 13 µg/mL (≈ 18.5 µM). Moreover, the half-inhibitory concentration (IC50) in the data set on HeLa S3 cells came out at 22 nM. Besides, in [6] (2.0 mg/kg i.v. once, 24 hours after transplant, tumor volume on day 7, read-out: T/C (tumor volume ratio treated/control)), the response vs control in vivo at 2 mg/kg was 44%.

Values taken from patent US5981558A, “DC107 derivatives” (Kyowa Hakko Kogyo Co., Ltd., priority 1996, dated 1999).
